The values that follow are results of earlier work, collected in patent US20070111953A1, “Compositions to improve the bioavailability of polymethoxyflavones and tocotrienols for treatment of cardiovascular disease” (KGK Synergize, Inc., priority 2005, published 2007).

The subject of the data set is acetylated LDL metabolism.

Regarding `COc1ccc(-c2cc(=O)c3c(OC)c(OC)c(OC)c(OC)c3o2)cc1OC` [nobiletin], the “Inhibition of acetylated LDL metabolism” value is reported as 50-72%.
